As a reminder, the melting point is the temperature, or range, at which the solid turns liquid.

Each structure is given as a SMILES string.

Our source for the melting point values is a melting point compilation (Tetko et al.; mined from patent text by program, amines drawn as free bases though some values may be those of a salt).

`CCc1nc2c(c(C)c(C)n3nnnc23)n1CCOCCNS(=O)(=O)CCCCl` showed a melting point of 126 to 129 °C.
Under `Clc1ccc2c(c1)N=C(N1CCCN(C3CC3)CC1)c1ccccc1N2` stands 141 to 143 °C; under `O=C(NCCO)c1ccc([N+](=O)[O-])cc1`, 134 to 135 °C.
In turn, `CN(CC(=O)Nc1ccccc1)C(=O)CN1CCCC1=O` showed a melting point of 145 to 146 °C.
`COc1cccc(CC(=O)O)c1OCCCc1cn(-c2ccc(C(F)(F)F)nn2)nc1C(C)(C)C` yielded a melting point of 131 to 132 °C.
The compound `CCOC(=O)C1=Cc2cc(C(C)=O)ccc2OC1C(F)(F)F` (stereo unspecified) returned a melting point of 101 to 103 °C.
As for `OC(c1ccc(F)cc1)c1cc(Br)cc(Br)c1` (stereo unspecified), the melting point was in the range of 92 to 93 °C.
Take `COCCN1CCC(c2ccc(C(=O)NC3(C(=O)NCC#N)CCCCC3)cc2)CC1`: the melting point was 160 to 162 °C.
With `Cc1ccc(-c2ccc(Cl)c(C(=O)NCC34CC5CC(CC(C5)C3)C4)c2)c(C(=O)O)n1`, the melting point is 125 to 130 °C.
The compound `Cc1ccc(-c2ccccc2C(=O)Nc2ccc(C(=O)N3C[C@@H]4CCCN4C(=O)c4ccccc43)cc2)cc1` yielded a melting point of 230 to 232 °C.
Compound `O=C1c2ccccc2-c2cc(O)c(Cl)c(Cl)c21` showed a melting point of 276 to 284 °C.
In the case of `CCn1c(C)nc2cc(C(F)(F)F)c(N(C)C)c(N)c21`, the melting point lay within 141 to 142 °C.
With `CCCc1c(OCCCCCOc2ccc(-c3cc4ccccc4c(=O)o3)cc2CCC(=O)OCC)ccc2c1OCCC2=O`, the melting point worked out at 144 °C.
For `Cn1c(C(F)(F)F)cc(=O)n(-c2cc(OCc3ccccc3Cl)c(Cl)cc2F)c1=O`, the melting point fell in the range of 126 to 129 °C.
In turn, `CC(=O)OC1(C(C)=O)CCC2C3CCC4=CC(=O)CCC4(C)C3(Br)C(F)CC21C` (stereo unspecified) registered a melting point of 180 to 182 °C.
Under `O=C(c1c[nH]c2c1ccc1c3ccccc3[nH]c12)C(F)(F)F` stands more than 295 °C.
As to `CCCCCCCCCCCOc1cccc(C(=O)O)c1`, the melting point turned out to be 88 °C.
In the case of `CC(=O)OC1(Cc2ccncc2)C(=O)N(N2CCCCC2)c2ccccc21` (stereo unspecified), the melting point was in the range of 139 to 140 °C.
The result for `CCN1CCN(c2cccc(Nc3nc4c(-c5ccc(P(C)(C)=O)cc5)cccn4n3)c2)C(=O)C1` reads 205 to 207 °C.
The result for `CC(C)(C)C(=O)Nc1c(F)cc(F)cc1Oc1ccc(C(C)(C)C(=O)O)cc1` reads 168 to 170 °C.
As to `CC1(C)CCC(C)(C)C2=C1CC(Cl)C(C)(O)C2` (stereo unspecified), the melting point is 122 to 124 °C.
With `O=C1NC2(CCCc3sccc32)c2ccccc21` (stereo unspecified), the melting point was in the range of 224 to 226 °C.
Take `COCCOc1ccccc1S(=O)(=O)NC(=O)Nc1nc(C)nc(OC)n1`: the melting point lay within 134 to 138 °C.
For `COc1ccc(-c2[nH]nc3c2C(=O)c2c(NC(=O)NNC(=O)c4ccc(O)c(O)c4)cccc2-3)cc1`, the melting point was more than 300 °C.
The result for `CN(C)Cc1ccc(CSCCNC2=NS(=O)(=O)c3cscc32)o1` reads 120 to 124 °C.
`CCOc1cc(Cc2ccccn2)ccc1CCCOc1c(CC(=O)O)cccc1OC` yielded a melting point of 97.5 to 98.5 °C.
Regarding `CCC(=O)C1C(=O)CC(c2ccccc2Cl)CC1=O` (stereo unspecified), the melting point lay within 63 to 64 °C.
The result for `CCSCc1c(CCN(C)C)[nH]c2ccccc12` reads 59 to 61 °C; that for `CC1(C)CCC(C)(C)c2cc(-c3cc(-c4ccc(C(=O)O)cc4)ccc3OCCCCCCO)ccc21`, 200 to 201 °C.
Compound `CN(CCc1ccc([N+](=O)[O-])cc1)C1CCN(c2ccc([N+](=O)[O-])cc2)CC1` came in with a melting point of 97 to 98 °C.
Compound `CCCCn1c(=O)c(NC(=O)Nc2c(C(C)C)cc(CO)cc2C(C)C)c(-c2cccc(OC)c2)c2cccnc21` yielded a melting point of 122 to 123 °C.
Under `CCCCCCCCCCCCCCCCNc1ccc(C(=O)OCC2CO2)cc1` (stereo unspecified) stands 86 to 89 °C; under `CCOC(=O)c1cc(O)n(C)n1`, 151 to 153 °C.
The result for `CCC(=O)Oc1ccc(NCc2c(F)c(F)c(C(F)(F)F)c(F)c2F)cc1C(=O)O` reads 188 to 191 °C; that for `CC(C)(C)OC(=O)N1CC[C@@H](CN(Cc2ccccc2)Cc2ccccc2)[C@H](O)C1` (relative stereo), 133 °C; that for `CCCCCCCCC1(COc2ccc(N)cc2)CCc2c(C)c(OC(C)=O)c(C)c(C)c2O1` (stereo unspecified), 112 to 114 °C.
`COC=C(C(=O)OC)c1c(OCc2cc(Cl)ccc2Cl)c(C)nn1C`: the melting point lay within 94 to 96 °C.
The result for `C=CCOC(=O)c1ccc(N=C(SC)c2ccc(OC)c(C34CC5CC(CC(C5)C3)C4)c2)cc1` reads 50 to 53 °C; that for `CC(=O)OC1CCC2C3CCC4=C([N+](=O)[O-])C(=O)CCC4(C)C3CCC12C` (stereo unspecified), 216 to 217 °C; that for `COc1ccc(Cn2cnc3c(-c4ccco4)nc(C)nc32)cc1`, 127 to 130 °C.
The result for `CCOC(=O)C(Cc1ccc(S(C)=O)cc1)(NC(C)=O)C(=O)OCC` (stereo unspecified) reads 135 to 136 °C; that for `CN(Cc1ccc(NC(=O)C2=Cc3cc(-c4ccc5c(c4)OCO5)ccc3S(=O)(=O)CC2)cc1)C1CCC(=O)CC1`, 219 to 223 °C; that for `CCCNC(=O)Nc1ccc(N2CCOCC2)cc1C(=O)NCC1CCN(C(c2ccccc2)c2ccccc2)CC1`, 215 to 217 °C.
In the case of `CCOC(=O)c1cc(=O)c2cccc(N3CCN(C)CC3)c2o1`, the melting point fell in the range of 124 to 125 °C.
Take `CNC(=O)C(C)(C)N(OC(C)(C)C#N)C(C)(C)C`: the melting point fell in the range of 96 to 101 °C.
Regarding `Cc1ccc(C(=O)c2cc(-c3cccnc3)c(N3CCOCC3)s2)cc1`, the melting point was found to be 134 °C.
`CCC(CC)Cn1c(=O)c(=O)[nH]c2cc([N+](=O)[O-])c(-n3cccc3C(=O)OC)cc21` had a melting point of 240 to 241 °C.
`COCOc1ccc(Nc2ncccc2[N+](=O)[O-])cc1` registered a melting point of 80 to 81 °C.
`COc1cccc(S(=O)(=O)N2C3CCC2CN(CC(=O)Nc2ccccc2C)C3)c1` came in with a melting point of 163 to 165 °C.
The result for `CCOC(=O)CCCCCn1c(-c2ccccc2)c(-c2ccccc2)n(-c2ccccc2)c1=O` reads 104 to 106 °C; that for `CCC1CC2C3CCC4=C(CCC(=O)C4)C3=CCC2(CC)C1OC(C)=O` (stereo unspecified), 123 to 127 °C.
`O=C(O)Cc1cccc2c(-c3ccc(F)cc3)nccc12` showed a melting point of 214 to 216 °C.
The result for `CCCn1cnc2c1c(=O)n(CCCC(C)(C)O)c(=O)n2C` reads 96 to 98 °C.
For the compound `CCn1c(=O)ccc2cnc(Nc3ccccc3OC)nc21`, the melting point was in the range of 126 to 128 °C.
`Oc1ccc(-c2cccc(OC3SCC(O)C(O)C3O)c2)cn1` (stereo unspecified) yielded a melting point of 200 °C.
Regarding `COC(=O)CS(=O)(=O)N1CC=C(c2ccc(-c3ccccc3)c(OC)c2)CC1`, the melting point lay in the range of 92 to 95 °C.
For `c1cc2c(cc1CSc1nnc(-c3ccc4c(c3)CCO4)o1)CCO2`, the melting point lay within 130 to 132 °C.
The result for `O=C(O)C(Cl)(Cl)CCCCCCCCCCCCC(Cl)(Cl)C(=O)O` reads 114 °C; that for `COc1cc2c(Nc3ccc(Cl)cc3F)ncnc2cc1OCC1CCOC1` (stereo unspecified), 201 to 202 °C.
As for `Nc1n[nH]c2nc3cc(O)ccc3cc12`, the melting point was more than 300 °C.
In turn, `O=C(O)C(=O)Nc1cc(Cl)cc(NC(=O)C(=O)O)n1` registered a melting point of more than 320 °C.
`O=C(O)COc1ccc2c(=O)c3ccccc3oc2c1Cl`: the melting point was 280 to 281 °C.
The compound `O=C(O)COC(c1ccc(Cl)cc1)c1ccc(Cl)cc1` yielded a melting point of 108 to 110 °C.
As to `CC(C)(C)c1ccc(Cn2[nH]c(N)cc2=O)cc1`, the melting point was determined as 126 °C.
For `O=C(NCc1ccccn1)Nc1cc(N2CC(c3cccs3)OC2=O)ccn1` (stereo unspecified), the melting point was 187 to 188 °C.
For `CCC1COC(=NO)C(=O)N1C` (stereo unspecified), the melting point fell in the range of 168 to 170 °C.
`COC(=O)c1c(C(F)F)nc(C(F)(F)F)c(C(C#N)=C2OCCO2)c1CC(C)C` registered a melting point of 121 to 122 °C.
Take `COc1cc(OC)cc(N2CCN(C(=O)N(CC3CC3)c3cc4ccccc4nc3OC)CC2)c1`: the melting point lay within 118 to 120 °C.
Compound `CCNc1nc2c(ccc3[nH]c4cnc(C(=O)OC(C)C)c(CC)c4c32)s1` returned a melting point of 275 to 276 °C.
With `CCS(=O)c1c(C#N)nn(-c2c(Cl)cc(C(F)(F)F)cc2Cl)c1NCCSC` (stereo unspecified), the melting point fell in the range of 111 to 113 °C.
With `CCc1nc(/C=C/c2cn(-c3ccccc3)nc2OCc2ccc(OCc3nc(-c4ccc(CC(=O)O)cc4)oc3C)c(OC)c2)c(C)s1`, the melting point lay within 198 to 199 °C.
`COc1cc(Br)ccc1C(C)CC(=O)C(=O)Nc1ccc2c(c1)COC2=O` (stereo unspecified) had a melting point of 136 to 140 °C.
With `Sc1nccn1Cc1cccs1`, the melting point lay in the range of 130 to 131 °C.
With `O=C1CC[N+]([O-])=C(c2ccccc2Cl)c2cc(Cl)ccc21`, the melting point is 184 to 187 °C.
`COP(=O)(OC)c1cc(Oc2ccc(C(F)(F)F)cc2Cl)ccc1[N+](=O)[O-]` yielded a melting point of 83 °C.
Compound `Cc1noc([C@@]2(C)CC[C@@H](NCC(=O)N3C[C@@H](F)C[C@H]3C#N)C2(C)C)n1` returned a melting point of 137 to 141 °C.
Under `COC(=O)C=Cc1cc(F)ccc1C(=O)O` stands 151 to 153 °C; under `COC(=O)c1c(C(=O)OC)c(-c2ccc(Cl)cc2)n2c1Cc1c(n(C)c3ccccc13)C2`, 264 to 265 °C; under `CC(=O)NNc1ccnc2c(NC(=O)c3ccccc3[N+](=O)[O-])cccc12`, 232 to 235 °C.
`COC(=O)C(NC(=O)OC(C)(C)C)c1ccc(CC(=O)O)cc1` (stereo unspecified) came in with a melting point of 123 to 124 °C.
The result for `CC(C)(C)c1nc(CO)c[nH]1` reads 212 to 221 °C; that for `Cc1c(C(F)(F)C(F)(F)F)ncn1-c1ncc(C(F)(F)F)cc1Cl`, 71 °C; that for `O=C(NC1CN2CCC1CC2)C(O)(c1cccs1)c1cccs1` (stereo unspecified), 169 °C.
Under `COC(=O)C(=C1SCCCN1C(=O)OC)[N+](=O)[O-]` stands 71 to 72 °C; under `Nc1ccc(N2C(=O)c3ccc(Cl)cc3C2=O)c(Cl)c1`, 198 to 201 °C; under `OCc1ccc2c(c1)ncn2-c1cccc(COCc2ccccn2)c1`, 101 to 103 °C.
